Results published in patent publication US20080269193A1, “Tetrahydroindole and Tetrahydroindazole Derivatives” (priority 2007, published 2008).

How the values were obtained:
NCl/ADR-RES cell line = assay: Potency against adriamycin-resistant breast cancer cell line; format: cell-based, human; settings: vs non-fluorinated parent analog
Method: (§1) A panel of cancer cell lines was obtained from the DCTP Tumor Repository, National Cancer Institute (Frederick, Md.) or ATCC (Rockville, Md.). Cell cultures were maintained in Hyclone RPMI 1640 medium (Logan, Utah) supplemented with 10% fetal bovine serum and 20 mM HEPES buffer, final pH 7.2, at 37° C. with a 5% CO2 atmosphere. Cultures were maintained at sub-confluent densities. Human umbilical vein endothelial cells (HUVEC) were purchased from Clonetics, a division of Cambrex (Walkersville, Md.). Cultures were established from cryopreserved stocks using Clonetics EGM-2 medium supplemented with 20 mM HEPES, final pH 7.2, at 37° C. with a 5% CO2 atmosphere.
(§2) For proliferation assays, cells were seeded with the appropriate medium into 96 well plates at 1,000-2,500 cells per well, depending on the cell line, and were incubated overnight. The following day, test compound, DMSO solution (negative control), or Actinomycin D (positive control) was added to the appropriate wells as 10× concentrated stocks prepared in phosphate buffered saline. […] Optical density was determined for each well at […] using a Tecan GeniosPro plate reader (RTP, NC). The percentage of cell growth was determined by comparing the cell growth in the presence of test compounds to the cells treated with DMSO vehicle (control, 100% growth) and cells treated with Actinomycin D (10 μM, 0% growth).

[1] = system: MES-SA/Dx5 (MDR+) cell line; assay: Potency against multi-drug resistant cell line; format: cell-based; settings: vs non-fluorinated parent analog
Method: as §1, §2

[2] = Oral bioavailability in rat; settings: in vivo, 10 mg/kg over 24 hours, read-out: oral bioavailability (F)
PC-3 cell line = assay: PC-3 cell proliferation assay; format: cell-based; settings: for IC50: Homo sapiens, PC-3 cells, read-out: inhibitory activity against PC-3 cell proliferation (IC50 range)
Method: as §1
For proliferation assays, cells were seeded with the appropriate medium into 96 well plates at 1,000-2,500 cells per well, depending on the cell line, and were incubated overnight. The following day, test compound, DMSO solution (negative control), or Actinomycin D (positive control) was added to the appropriate wells as 10× concentrated stocks prepared in phosphate buffered saline. The cell plates were then incubated for an additional 2-5 days, depending on the cell line, to allow proliferation to occur. To measure cell density, 50 μL of WST-1 solution (Roche Applied Science, Ind.) diluted 1:5 in phosphate buffered saline was added to each well, and the cells incubated for an additional 1-5 hrs., again depending on the cell line. Optical density was determined for each well at […] using a Tecan GeniosPro plate reader (RTP, NC). The percentage of cell growth was determined by comparing the cell growth in the presence of test compounds to the cells treated with DMSO vehicle (control, 100% growth) and cells treated with Actinomycin D (10 μM, 0% growth).
Immediately after the WST-1 determination, the medium was removed from the PC-3, NCI-H460 and HUVEC cell lines, and the plates stored at −80° C. Using these assay plates, relative amounts of DNA in each well were determined using the Cyquant DNA assay kit from […] (Eugene, Oreg.) following the manufacturer's directions. Results for each compound treatment were compared to DMSO vehicle control (100%) and 10 μM Actinomycin D treated cells (0%).

[3] = system: HSP-90 (heat shock protein 90); assay: Determination of affinity for HSP-90 (purine affinity column elution); format: binding; set-up: key: +++: very high; ++: high; +: moderate; settings: elution from purine affinity column
Method: Affinity of test compounds for HSP-90 was determined as follows: Protein mixtures obtained from a variety of organ tissues (for example: spleen, liver and lung) were reversibly bound to a purine affinity column to capture purine-binding proteins, especially HSP-90. The purine affinity column was washed several times, and then eluted with 20 μM, 100 μM, and 500 μM of test compound. Compounds of Formula I elute HP-90 in a dose-dependent manner vs. a control elution using dimethylsulfoxide. The elution profile of Formula I compounds was determined by 1-dimensional SDS polyacrylamide gel electrophoresis. Gels were stained with a fluorescent stain such as sypro ruby (a highly sensitive fluorescent protein stain that can readily detect less than 1 fmol of total protein, i.e., less than 0.04 ng for a 40 kDa protein) or silver nitrate. The gels were imaged using a standard flat bed gel imager and the amount of protein estimated by densitometry. The percent of HSP-90 protein eluted from the column at each concentration was determined and IC50 values were calculated from these estimates.

Aqueous solubility = format: physicochemical; settings: water; mono hydrochloride salt

| SMILES | IC50 (PC-3 cell line) [nM] | relative binding affinity to HSP-90 [3] | other results |
| --- | --- | --- | --- |
| CC1(C)CC(=O)c2c(CC3CC3)nn(-c3cc(F)c(C(N)=O)c(NC4CCOCC4)c3)c2C1 [Example 48, 4-(3-(cyclopropylmethyl)-6,6-dimethyl-4-oxo-4,5,6,7-tetrahydro-1H-indazol-1-yl)-2-fluoro-6-(tetrahydro-2H-pyran-4-ylamino)benzamide] |  |  | times more potent against NCl/ADR-RES cell line (NCl/ADR-RES cell line): 3-10 times; times more potent against MES-SA/Dx5 (MDR+) cell line [1]: 4-6 times |
| Cc1nn(-c2cc(F)c(C(N)=O)c(NC3CCOCC3)c2)c2c1C(=O)CC(C)(C)C2 [Example 50, 2-fluoro-6-(tetrahydro-2H-pyran-4-ylamino)-4-(3,6,6-trimethyl-4-oxo-4,5,6,7-tetrahydro-1H-indazol-1-yl)benzamide] |  |  | bioavailability [2]: > 40% |
| CCc1nn(-c2ccc(C(N)=O)c(N[C@H]3CC[C@H](O)CC3)c2F)c2c1C(=O)CC(C)(C)C2 [Example 51, 4-(3-ethyl-6,6-dimethyl-4-oxo-4,5,6,7-tetrahydro-1H-indazol-1-yl)-3-fluoro-2-(trans-4-hydroxycyclohexylamino)benzamide] | < 500 | +++ |  |
| CCc1nn(-c2cc(F)c(C(N)=O)c(NC3CC=CC3)c2)c2c1C(=O)CC(C)(C)C2 [Example 89, 2-(cyclopent-3-enylamino)-4-(3-ethyl-6,6-dimethyl-4-oxo-4,5,6,7-tetrahydro-1H-indazol-1-yl)-6-fluorobenzamide] | < 500 | +++ |  |
| CCc1nn(-c2cc(F)c(C(N)=O)c(NCC(OC)OC)c2)c2c1C(=O)CC(C)(C)C2 [Example 97, 2-(2,2-dimethoxyethylamino)-4-(3-ethyl-6,6-dimethyl-4-oxo-4,5,6,7-tetrahydro-1H-indazol-1-yl)-6-fluorobenzamide] | < 500 | +++ |  |
| C#CCN1CCC(Nc2cc(-n3nc(C(F)F)c4c3CC(C)(C)CC4=O)ccc2C(N)=O)CC1 [Example 106, 4-(3-(difluoromethyl)-6,6-dimethyl-4-oxo-4,5,6,7-tetrahydro-1H-indazol-1-yl)-2-(1-(prop-2-ynyl)piperidin-4-ylamino)benzamide] |  |  | inhibition of PC-3 cell line growth, times more (PC-3 cell line; vs compounds lacking a basic nitrogen or amino group at R6): 5-10 times |
| CC1(C)CC(=O)c2c(C(F)(F)F)nn(-c3ccc(C(N)=O)c(N[C@@H]4CCCC[C@H]4N)c3)c2C1 [Example 119, 2-((1R,2R)-2-aminocyclohexylamino)-4-(6,6-dimethyl-4-oxo-3-(trifluoromethyl)-4,5,6,7-tetrahydro-1H-indazol-1-yl)benzamide] | < 500 | +++ |  |
| C#CCN1CCC[C@H](Nc2cc(-n3nc(C(F)(F)F)c4c3CC(C)(C)CC4=O)ccc2C(N)=O)C1 [Example 121, (S)-4-(6,6-dimethyl-4-oxo-3-(trifluoromethyl)-4,5,6,7-tetrahydro-1H-indazol-1-yl)-2-(1-(prop-2-ynyl)piperidin-3-ylamino)benzamide] |  |  | solubility (Aqueous solubility): > 10000 µg/mL |
| CC1(C)CC(=O)c2c(C(F)(F)F)nn(-c3ccc(C(N)=O)c(NC4CCC4)c3)c2C1 [Example 148, 2-(cyclobutylamino)-4-(6,6-dimethyl-4-oxo-3-(trifluoromethyl)-4,5,6,7-tetrahydro-1H-indazol-1-yl)benzamide] |  |  | times more active in PC-3 cell line (PC-3 cell line; vs open chain butyl or alkyl analogs containing no oxygen): 20-100 times |
| CC1(C)CC(=O)c2c(C(F)(F)F)nn(-c3ccc(C(N)=O)c(NCCO)c3)c2C1 [Example 150, 4-(6,6-dimethyl-4-oxo-3-(trifluoromethyl)-4,5,6,7-tetrahydro-1H-indazol-1-yl)-2-(2-hydroxyethylamino)benzamide] |  |  | times more potent in PC-3 cell line (PC-3 cell line; vs alkyl analogs without oxygen): 10-30 times |
| CC1(C)CC(=O)c2c(C(F)(F)F)nn(-c3ccc(C(N)=O)c(N[C@H]4CCCC[C@@H]4O)c3)c2C1 [Example 172, 4-(6,6-dimethyl-4-oxo-3-(trifluoromethyl)-4,5,6,7-tetrahydro-1H-indazol-1-yl)-2-((1S,2S)-2-hydroxycyclohexylamino)benzamide] |  |  | times more potent in PC-3 cell line (PC-3 cell line; vs cyclohexyl analogs not substituted with an oxygen atom): 20-50 times |
| Cc1nn(-c2ccc(C(N)=O)c(N[C@H]3CCOC3)c2)c2c1C(=O)CC(C)(C)C2 [Example 181, (S)-2-(tetrahydrofuran-3-ylamino)-4-(3,6,6-trimethyl-4-oxo-4,5,6,7-tetrahydro-1H-indazol-1-yl)benzamide] |  |  | times more active in PC-3 cell line (PC-3 cell line; vs non-oxygen containing cyclopentyl analogs): 20-50 times |

Second part, led by results:

| IC50 (PC-3 cell line) [nM] | relative binding affinity to HSP-90 [3] | SMILES | other results |
| --- | --- | --- | --- |
| 500 to 5000 |  | CC1(C)CC(=O)c2c(C(F)(F)F)nn(-c3ccc(C(N)=O)c(NCCSc4ncccn4)c3)c2C1 [Example 124, 4-(6,6-dimethyl-4-oxo-3-(trifluoromethyl)-4,5,6,7-tetrahydro-1H-indazol-1-yl)-2-(2-(pyrimidin-2-ylthio)ethylamino)benzamide] |  |
| < 500 | +++ | CC(C)(C)CN[C@H]1CC[C@H](Nc2cc(-n3nc(C(F)(F)F)c4c3CC(C)(C)CC4=O)ccc2C(N)=O)CC1 [Example 140, 4-(6,6-dimethyl-4-oxo-3-(trifluoromethyl)-4,5,6,7-tetrahydro-1H-indazol-1-yl)-2-(trans-4-(neopentylamino)cyclohexylamino)benzamide] |  |
| < 500 | +++ | CC1(C)CC(=O)c2c(CC3CC3)nn(-c3ccc(C(N)=O)c(NC4CCOCC4)c3)c2C1 [Example 157, 4-(3-(cyclopropylmethyl)-6,6-dimethyl-4-oxo-4,5,6,7-tetrahydro-1H-indazol-1-yl)-2-(tetrahydro-2H-pyran-4-ylamino)benzamide] |  |
| 500 to 5000 | +++ | C[C@H](O)CNc1cc(-n2nc(C(F)(F)F)c3c2CC(C)(C)CC3=O)ccc1C(N)=O [Example 165, (S)-4-(6,6-dimethyl-4-oxo-3-(trifluoromethyl)-4,5,6,7-tetrahydro-1H-indazol-1-yl)-2-(2-hydroxypropylamino)benzamide] |  |
| < 500 | +++ | CCc1nn(-c2ccc(C(N)=O)c(N[C@H]3CCC[C@@H]3O)c2)c2c1C(=O)CC(C)(C)C2 [Example 180, 4-(3-ethyl-6,6-dimethyl-4-oxo-4,5,6,7-tetrahydro-1H-indazol-1-yl)-2-((1S,2S)-2-hydroxycyclopentylamino)benzamide] |  |
| 5000 to 50000 | ++ | CCc1nn(-c2ccc(C(N)=O)c3[nH]c(C)nc23)c2c1C(=O)CC(C)(C)C2 [Example 186, 4-(3-ethyl-6,6-dimethyl-4-oxo-4,5,6,7-tetrahydro-1H-indazol-1-yl)-2-methyl-1H-benzo[d]imidazole-7-carboxamide] |  |
